The values below come from US20190100534A1, “Cephem Compounds with Latent Reactive Groups” (Gladius Pharmaceuticals, Inc., priority 2017, published 2019).

Common to all, as to assay type: cell-based
Experiment [1] deals with Isogenic E. coli J58 strain carrying VIM-2. Nature of the experiment: MIC determination, isogenic E. coli strains. Conditions: Escherichia coli, 18 h, read-out: Mimimum Inhibitory Concentrations, VIM-2. The method, then:
(§1) Sterile technique was used throughout these experiments. Suspensions of organisms were removed from storage (−80° C.) and partially thawed. Partially thawed organisms (1 μL) were inoculated into 3 mL sterile LB Broth in a sterile culture tube and capped, then cultured at 37° C. with shaking for 4-5 hours until the optical density at 600 nm (OD600) was greater than 0.1 on a single beam spectrophotometer.
(§2) The concentration of organisms was adjusted to 0.08-0.1 OD600 (0.5 McFarland units) by dilution with sterile cation-adjusted Meuller-Hinton (CAMH) broth. The suspensions were used within 30 minutes of preparation.
(§3) A stock solution was made of each test compound by measuring 6.4 mg of the compound on an analytical balance and dissolving it in DMSO (1 mL) to get a transparent solution. The solutions were stored at −20° C. and thawed prior to use.
(§4) Sterile CAMH broth (200 μL) containing 20 μM Apo-Transferrin was pipetted into the first row of 8 columns of a sterile, round-bottomed, transparent, 96-well microplate using an 8-channel pipette equipped with sterile tips. One hundred μL was pipetted into the wells of the remaining 11 rows.
(§5) With an 8-channel pipette equipped with sterile tips, 100 μL of the first row solution was transferred to the second row and mixed. The process was repeated for the second to third rows and continued through row 11. One hundred μL from row 11 was removed and discarded so that all 12 rows contained 100 μL. Row 12 contained no compound and rows 1-11 contained 64, 32, 16, 8, 4, 2, 1, 0.5, 0.25, 0.125, […] of a given compound.
(§6) Inoculant suspensions (0.5 μL) were added to the 12 wells of each column. The plates were then covered and incubated at 37° C. overnight for 18 hours.
(§7) For each organism the MIC was determined by identifying the transparent well with the lowest test compound concentration.
VIM-2 (Group 3a carbapenemase, metallo-beta-lactamase); and
(§8) The gene sequence for each beta-lactamase enzyme was synthesized and inserted into the pBC-SK(+) plasmid by GenScript, a commercial service. E. coli J53 was transformed with each plasmid via electroporation and resistant transformants were selected on agar plates containing 50 micrograms/mL ampicillin. The selected transformants were stored at −80 degrees C. in 20% glycerol.

Experiment [2] has as its system Isogenic E. coli J58 strain carrying SHV-1. Description: MIC determination, isogenic E. coli strains. As to conditions: Escherichia coli, 18 h, read-out: Mimimum Inhibitory Concentrations, SHV-1. How it is done:
as §1, §2, §3, §4, §5, §6, §7
SHV-1 (Class A, Group 2b beta-lactamase, hydrolyzes penicillins and early cephalosporins);
as §8

Experiment [3] relates to Isogenic E. coli J58 strain carrying DHA-1. Description: MIC determination, isogenic E. coli strains. Conditions: Escherichia coli, 18 h, read-out: Mimimum Inhibitory Concentrations, DHA-1. The method, then:
as §1, §2, §3, §4, §5, §6, §7, §8

A further experiment relates to E. coli J53 Alone. Description: MIC determination, isogenic E. coli strains. How it is done:
as §1, §2, §3, §4, §5, §6, §7, §8

The subject of experiment [4] is Isogenic E. coli J58 strain carrying CTX-M-15. Nature of the experiment: MIC determination, isogenic E. coli strains. Conditions: Escherichia coli, 18 h, read-out: Mimimum Inhibitory Concentrations, CTX-M-15. The method, then: as §1, §2, §3, §4, §5, §6, §7
(§9) CTX-M-14 and CTX-M-15 (Class A, Group 2be beta-lactamases, hydrolyzes extended spectrum cephalosporins and monobactams);
as §8

For experiment [5], the system named is Isogenic E. coli J58 strain carrying CTX-M-14. Nature of the experiment: MIC determination, isogenic E. coli strains. Conditions: Escherichia coli, 18 h, read-out: Mimimum Inhibitory Concentrations, CTX-M-14. The method, then: as §1, §2, §3, §4, §5, §6, §7, §9, §8
Experiment [6] deals with Isogenic E. coli J58 strain carrying NDM-1. Description: MIC determination, isogenic E. coli strains. Conditions: Escherichia coli, 18 h, read-out: Mimimum Inhibitory Concentrations, NDM-1. The method, then: as §1, §2, §3, §4, §5, §6, §7
NDM-1 (Group 3a carbapenemase, broad spectrum divalent Zn^++ metallo-Beta-Lactamase);
as §8

Experiment [7] deals with Pseudomonas aeruginosa PA-RR-(G7305586). Nature of the experiment: MIC determination. As to conditions: Pseudomonas aeruginosa, 18 h, read-out: Minimum Inhibitory Concentrations, PA-RR-(G7305586). How it is done: as §1, §2, §3, §4, §5, §6, §7
Experiment [8] relates to Pseudomonas aeruginosa PA-RR-(98023895). Description: MIC determination. As to conditions: Pseudomonas aeruginosa, 18 h, read-out: Minimum Inhibitory Concentrations, PA-RR-(98023895). How it is done: as §1, §2, §3, §4, §5, §6, §7
Experiment [9] has as its system Pseudomonas aeruginosa PA (URMC-2). Nature of the experiment: MIC determination. As to conditions: Pseudomonas aeruginosa, 18 h, read-out: Minimum Inhibitory Concentrations, PA (URMC-2). The method, then:
as §1, §2, §3, §4, §5, §6, §7

Experiment [10] deals with Pseudomonas aeruginosa PA (RR-2). Description: MIC determination. As to conditions: Pseudomonas aeruginosa, 18 h, read-out: Minimum Inhibitory Concentrations, PA (RR-2). How it is done:
as §1, §2, §3, §4, §5, §6, §7

The subject of experiment [11] is Pseudomonas aeruginosa PA-RR-(G7304100). Nature of the experiment: MIC determination. Conditions: Pseudomonas aeruginosa, 18 h, read-out: Minimum Inhibitory Concentrations, PA-RR-(G7304100). The method, then:
as §1, §2, §3, §4, §5, §6, §7

Experiment [12] has as its system Pseudomonas aeruginosa PA-RR-(980151052). Nature of the experiment: MIC determination. Conditions: Pseudomonas aeruginosa, 18 h, read-out: Minimum Inhibitory Concentrations, PA-RR-(980151052). How it is done:
as §1, §2, §3, §4, §5, §6, §7

For experiment [13], the system named is Pseudomonas aeruginosa (PA). Nature of the experiment: MIC determination. As to conditions: Pseudomonas aeruginosa, 18 h, read-out: Minimum Inhibitory Concentrations, PA. How it is done: as §1, §2, §3, §4, §5, §6, §7
The subject of experiment [14] is Pseudomonas aeruginosa PA-RR-(purple Fre D). Nature of the experiment: MIC determination. Conditions: Pseudomonas aeruginosa, CAMH broth, 20 μM Apo-Transferrin, 37° C., 18 hours, read-out: Minimum Inhibitory Concentrations, PA-RR-(purple Fre D). How it is done: as §1, §2, §3, §4, §5, §6, §7
Experiment [15] deals with Pseudomonas aeruginosa PA-RR-(G7294437). Description: MIC determination. Conditions: Pseudomonas aeruginosa, 18 h, read-out: Minimum Inhibitory Concentrations, PA-RR-(G7294437). How it is done:
as §1, §2, §3, §4, §5, §6, §7

Experiment [16] concerns Pseudomonas aeruginosa PA-RR-(G8062859). Nature of the experiment: MIC determination. As to conditions: Pseudomonas aeruginosa, 18 h, read-out: Minimum Inhibitory Concentrations, PA-RR-(G8062859). How it is done:
as §1, §2, §3, §4, §5, §6, §7

The subject of experiment [17] is Pseudomonas aeruginosa PA (URMC-3). Nature of the experiment: MIC determination. Conditions: Pseudomonas aeruginosa, 18 h, read-out: Minimum Inhibitory Concentrations, PA (URMC-3). The method, then:
as §1, §2, §3, §4, §5, §6, §7

Experiment [18] has as its system Pseudomonas aeruginosa PA (RR-1). Nature of the experiment: MIC determination. As to conditions: Pseudomonas aeruginosa, 18 h, read-out: Minimum Inhibitory Concentrations, PA (RR-1). The method, then: as §1, §2, §3, §4, §5, §6, §7
Experiment [19] has as its system Isogenic E. coli J58 strain carrying IMP-1. Description: MIC determination, isogenic E. coli strains. As to conditions: Escherichia coli, 18 h, read-out: Mimimum Inhibitory Concentrations, IMP-1. How it is done:
as §1, §2, §3, §4, §5, §6, §7
IMP-1 (Group 3a carbapenemase, metallo-beta-Lactamase).
as §8

The subject of experiment [20] is Isogenic E. coli J58 strain carrying KPC-2. Description: MIC determination, isogenic E. coli strains. Conditions: Escherichia coli, 18 h, read-out: Mimimum Inhibitory Concentrations, KPC-2. The method, then: as §1, §2, §3, §4, §5, §6, §7
(§10) KPC-2 and KPC-3 (Class A, Group 2f, carbapenemases);
as §8

Experiment [21] relates to Isogenic E. coli J58 strain carrying KPC-3. Nature of the experiment: MIC determination, isogenic E. coli strains. As to conditions: Escherichia coli, 18 h, read-out: Mimimum Inhibitory Concentrations, KPC-3. How it is done:
as §1, §2, §3, §4, §5, §6, §7, §10, §8

The test system of experiment [22] is Isogenic E. coli J58 strain carrying TEM-26. Nature of the experiment: MIC determination, isogenic E. coli strains. Conditions: Escherichia coli, 18 h, read-out: Mimimum Inhibitory Concentrations, TEM-26. How it is done: as §1, §2, §3, §4, §5, §6, §7
TEM-26 (Group 2be beta-lactamase, hydrolyzes extended spectrum cephalosporins and monobactams), [25];
as §8

SMILES strings stand for the structures.

Consider `CC[N+]1(Cc2ccc(C=CC3=C(C(=O)O)N4C(=O)[C@@H](NC(=O)/C(=N\OC(C)(C)C(=O)O)c5csc(N)n5)[C@H]4SC3)cc2)CCc2cc(O)c(O)cc2C1` (mixture of isomers) [Compound 423, 2-(4-((E/Z)-2-((6R,7R)-7-((Z)-2-(2-aminothiazol-4-yl)-2-(((2-carboxypropan-2-yl)oxy)imino)acetamido)-2-carboxy-8-oxo-5-thia-1-azabicyclo[4.2.0]oct-2-en-3-yl)vinyl)benzyl)-2-ethyl-6,7-dihydroxy-1,2,3,4-tetrahydroisoquinolin-2-ium], for which the MIC was determined as 0.5 µg/mL in experiment [1]; 2 µg/mL in experiment [2]; 1 µg/mL in experiment [3]; 0.25 µg/mL in the experiment with E. coli J53 Alone (Escherichia coli, J53ALONE, 18 h, read-out: Mimimum Inhibitory Concentrations, J53 Alone); 2 µg/mL in experiment [4]; 2 µg/mL in [5]. Besides, the MIC in experiment [6] is greater than 64 µg/mL; in experiment [7] it was 8 µg/mL; in [8] it was 8 µg/mL; in experiment [9] it was 2 µg/mL; in experiment [10] it was 2 µg/mL; in experiment [11], no more than 0.06 µg/mL. Moreover, the MIC in experiment [12] was 2 µg/mL; in [13], 2 µg/mL; in experiment [14], 1 µg/mL; in experiment [15], 0.5 µg/mL; in experiment [16], 2 µg/mL; in [17], no more than 0.06 µg/mL. Also, the MIC in experiment [18] was determined as 2 µg/mL; in [19], 32 µg/mL; in experiment [20] it was 8 µg/mL; in experiment [21], 4 µg/mL; in [22] it was 2 µg/mL. For the same compound, the “Mimimum Inhibitory Concentrations, J53 Alone” value in the experiment with E. coli J53 Alone (J53 Alone, Table 4-2, CAMH broth, 20 μM Apo-Transferrin, 37° C., 18 hours) is reported as 0.25 microgram/mL.
